Source: ChEMBL document CHEMBL4251728, “Toll-like Receptors for the Treatment of Autoimmune, Inflammation, and Infectious Diseases” (ACS Med Chem Lett, 2018)

Target: T1, Toll-like receptor 7 (Homo sapiens, UniProt Q9NYK1)
T1 sequence (Q9NYK1 whole entry): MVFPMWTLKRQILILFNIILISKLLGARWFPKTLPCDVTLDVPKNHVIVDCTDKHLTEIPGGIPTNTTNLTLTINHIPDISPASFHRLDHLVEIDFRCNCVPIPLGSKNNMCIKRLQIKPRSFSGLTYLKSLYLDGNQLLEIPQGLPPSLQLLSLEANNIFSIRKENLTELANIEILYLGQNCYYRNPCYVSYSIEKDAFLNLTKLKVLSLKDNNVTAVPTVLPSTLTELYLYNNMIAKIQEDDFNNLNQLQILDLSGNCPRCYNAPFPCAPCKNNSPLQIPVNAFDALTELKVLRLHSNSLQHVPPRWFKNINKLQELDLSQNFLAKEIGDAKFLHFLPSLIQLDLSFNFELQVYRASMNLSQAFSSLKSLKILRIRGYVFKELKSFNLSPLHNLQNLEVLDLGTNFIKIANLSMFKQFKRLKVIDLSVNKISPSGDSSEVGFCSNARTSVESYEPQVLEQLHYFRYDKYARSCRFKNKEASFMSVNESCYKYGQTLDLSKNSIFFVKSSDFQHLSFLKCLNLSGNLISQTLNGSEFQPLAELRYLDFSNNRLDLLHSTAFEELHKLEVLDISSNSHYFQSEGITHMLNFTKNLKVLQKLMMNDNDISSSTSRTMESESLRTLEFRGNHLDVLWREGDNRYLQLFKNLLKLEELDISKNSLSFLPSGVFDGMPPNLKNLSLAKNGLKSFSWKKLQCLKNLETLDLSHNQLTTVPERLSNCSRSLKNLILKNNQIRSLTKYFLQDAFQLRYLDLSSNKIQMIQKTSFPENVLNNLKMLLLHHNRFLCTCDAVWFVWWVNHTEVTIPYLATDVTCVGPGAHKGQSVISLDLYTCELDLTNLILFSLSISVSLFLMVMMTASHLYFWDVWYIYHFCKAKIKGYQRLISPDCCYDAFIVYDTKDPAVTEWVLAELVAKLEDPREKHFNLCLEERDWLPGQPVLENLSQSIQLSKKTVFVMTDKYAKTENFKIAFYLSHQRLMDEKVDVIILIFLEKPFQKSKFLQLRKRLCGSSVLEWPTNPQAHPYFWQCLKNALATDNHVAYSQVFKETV
Test: Antagonist activity at TLR7 in HEK cells assessed as decrease in R848-induced NF-kappaB activation incubated for 30 mins followed by R848 addition measured after 5 hrs by steady-Glo reagent based assay
Assay type: cell-based

Structure (SMILES)	IC50 [nM]
C[C@H]1C[C@@H](NC(=O)[C@@H](O)C(C)(C)C)C[C@H](c2ccc(C(F)(F)F)c3nccnc23)C1	< 1000
C[C@@H]1C[C@H](c2ccc(C(F)(F)F)c3ncccc23)CN(C(=O)NC2CC2)C1	1000 to 20000
C[C@@H]1C[C@@H](c2ccc(C#N)c3ncccc23)CN(C(=O)C[C@H]2[C@@H]3CNC[C@@H]32)C1	< 1000
CC1CC(c2ccc(C#N)c3ncccc23)CN(CC2CCN(C)C2)C1 (configuration not stated)	< 1000
C[C@@H]1C[C@H](c2ccc(C#N)c3ncccc23)CN(C(=O)NC2CCN(C)CC2)C1	< 1000
C[C@@H]1C[C@@H](c2ccc(C(F)(F)F)c3ncccc23)CN(C(=O)CCn2cccn2)C1	> 20000

Further lines, results first:

IC50 [nM]	Structure (SMILES)
< 1000	C[C@@H]1C[C@H](c2ccc(C#N)c3ncccc23)CN(C(=O)CN2CCN(C)CC2)C1
< 1000	C[C@@H]1C[C@H](c2ccc(C#N)c3ncccc23)CN(C(=O)CC2C3CC2CN(C)C3)C1 (some centres not stated)
< 1000	C[C@@H]1C[C@H](N)C[C@@H](c2ccc(C(F)(F)F)c3nccnc23)C1
< 1000	Cc1ccc([C@H]2C[C@@H](C)CN(C(=O)CC3CCN(C)CC3)C2)c2cccnc12
< 1000	C[C@@H]1C[C@H](N)C[C@H](c2ccc(C(F)(F)F)c3nccnc23)C1
< 1000	C[C@@H]1C[C@H](c2ccc(C#N)c3ncccc23)CN(C(=O)CC2CCN(C)CC2)C1
